Usually IC50 stands for the midpoint of a concentration-inhibition curve. Usually melting point stands for the temperature, or range, at which the solid turns liquid.

The test system of data set [1] is K562 (chronic myelogenous leukaemia). Nature of the data set: Effect on tumor cell lines, viable cell count by trypan blue exclusion (Latham et al.): K562. The data set is classed as cell-based. The note with it: Homo sapiens, K562, 96 h, K562 chronic myelogenous leukaemia cells, viable cell count 96 hours after treatment.
The test system of the next data set is DU145 (prostate cancer). Nature of the data set: Effect on tumor cell lines, viable cell count by trypan blue exclusion (Latham et al.): DU145. The note with it: Homo sapiens, DU-145, 96 h, DU145 prostate cancer cells, viable cell count 96 hours after treatment. The data set is classed as cell-based.

SMILES strings stand for the structures.

`CCOc1cc(/C=C(\C#N)S(=O)(=O)Nc2ccc(C)cc2C)ccc1O` [Example 275] came in with a melting point of 146 to 148 °C. Besides, in data set [1], the half-inhibitory concentration (IC50) is 50 to 100 µM. This compound showed an IC50 with DU145 (prostate cancer) of more than 100 µM.
For `N#C/C(=C\c1ccccc1OCc1ccccc1)S(=O)(=O)Nc1ccc(Br)cc1` [Example 213] the same measures were 128 to 130 °C, 25 to 50 µM and 25 to 50 µM.
For `Cc1ccsc1/C=C(\C#N)S(=O)(=O)Nc1ccc(F)cc1` [Example 236] the same measures were 179 to 181 °C, 50 to 100 µM and more than 100 µM.
For `N#C/C(=C\c1c[nH]c2ccccc12)S(=O)(=O)Cc1ccc(F)cc1` [Example 81] the same measures were 140 to 152 °C, 50 to 100 µM and 50 to 100 µM.
Turning to `COc1ccccc1/C=C(\C#N)S(=O)(=O)Nc1ccccc1Oc1ccccc1` [Example 199], the melting point lay within 116 to 118 °C. In addition, in data set [1], the IC50 was in the range of 50 to 100 µM. Also, in the data set with DU145 (prostate cancer), the IC50 is more than 100 µM.
The like results for `N#C/C(=C\c1ccc(O)cc1O)S(=O)(=O)Cc1ccc(F)cc1` [Example 83] were, in that order, 225 to 234 °C, 50 to 100 µM and 50 to 100 µM.
The like results for `COc1cc(OC)c(/C=C(\C#N)S(=O)(=O)Nc2ccccc2Oc2ccccc2)c(OC)c1` [Example 208] were, in that order, 154 to 156 °C, 25 to 50 µM and 50 to 100 µM.
Compound `N#C/C(=C\c1cccc(O)c1)S(=O)(=O)Cc1ccccc1` [Example 124] registered a melting point of 132 to 135 °C. The compound further had an IC50 in data set [1] of 50 to 100 µM. Besides, the IC50 in the data set with DU145 (prostate cancer) is more than 100 µM.
For `COc1ccccc1/C=C(\C#N)S(=O)(=O)Nc1ccc(F)cc1` [Example 247] the same measures were 152 to 154 °C, more than 100 µM and more than 100 µM.
The like results for `COc1ccc(/C=C(\C#N)S(=O)(=O)Cc2ccccc2)c(OC)c1` [Example 132] were, in that order, 125 to 130 °C, more than 100 µM and more than 100 µM.
For `COc1ccc(CS(=O)(=O)/C(C#N)=C/c2c(F)c(F)c(F)c(F)c2F)cc1OS(=O)(=O)c1ccc(C)cc1` [Example 38, (E)-2-[(4-methoxy-3-(4-methylphenylsulfonyloxy)phenyl)methanesulfonyl]-3-(2,3,4,5,6-pentafluorophenyl)acrylonitrile] the same measures were 170 to 172 °C, 50 to 100 µM and more than 100 µM.
Regarding `Cc1ccc(NS(=O)(=O)/C(C#N)=C/c2ccc(Cl)c(Cl)c2)c(C)c1` [Example 274], the melting point lay within 141 to 143 °C. For the same compound, the IC50 in data set [1] fell in the range of 50 to 100 µM. This compound came in with a concentration for half-maximal inhibition (IC50) with DU145 (prostate cancer) of 50 to 100 µM.
`COc1ccc(NS(=O)(=O)/C(C#N)=C/c2cc(C)ccc2C)cc1` [Example 282] showed a melting point of 125 to 127 °C. The compound also gave an IC50 in data set [1] of 50 to 100 µM. This compound also registered an IC50 with DU145 (prostate cancer) of 50 to 100 µM.
In the case of `COc1cc(/C=C(\C#N)S(=O)(=O)Cc2ccccc2)cc(OC)c1` [Example 134], the melting point lay in the range of 152 to 156 °C. The compound also yielded a 50% inhibitory concentration (IC50) in data set [1] of 10 to 25 µM. The compound further yielded an IC50 with DU145 (prostate cancer) of 50 to 100 µM.
Take `COc1ccc(NS(=O)(=O)/C(C#N)=C/c2ccccc2OC)cc1` [Example 204]: the melting point lay within 133 to 135 °C. The same compound came in with an IC50 in data set [1] of 50 to 100 µM. This compound gave a half-inhibitory concentration (IC50) in the data set with DU145 (prostate cancer) of more than 100 µM.
For `COc1ccc(NS(=O)(=O)/C(C#N)=C/c2ccc(OC)c(OC)c2OC)cc1` [Example 285] the same measures were 140 to 142 °C, 50 to 100 µM and more than 100 µM.
The like results for `Cc1ccc(C)c(/C=C(\C#N)S(=O)(=O)Cc2ccc(Cl)cc2)c1` [Example 40] were, in that order, 123 to 126 °C, 1 to 10 µM and 25 to 50 µM.
For `COc1cc(OC)c(/C=C(\C#N)S(=O)(=O)Cc2ccc(F)cc2)c(OC)c1` [Example 79] the same measures were 182 to 192 °C, 50 to 100 µM and more than 100 µM.
For the compound `N#C/C(=C\c1ccccc1O)S(=O)(=O)Cc1ccccc1` [Example 125], the melting point is 135 to 138 °C. The compound also registered an IC50 in data set [1] of more than 100 µM. The compound also gave an IC50 in the data set with DU145 (prostate cancer) of 50 to 100 µM.
As for `COc1cc(/C=C(\C#N)S(=O)(=O)Cc2ccc(Cl)cc2)cc(OC)c1` [Example 56], the melting point lay within 155 to 165 °C. Also, the IC50 in data set [1] was in the range of 25 to 50 µM. The same compound displayed an IC50 with DU145 (prostate cancer) of 50 to 100 µM.
`COc1ccc(NS(=O)(=O)/C(C#N)=C/c2c(F)c(F)c(F)c(F)c2F)cc1` [Example 192] registered a melting point of 100 to 102 °C. This compound registered an IC50 in data set [1] of 1 to 10 µM. Also, the IC50 in the data set with DU145 (prostate cancer) lay within 10 to 25 µM.
As for `COc1cc(/C=C(\C#N)S(=O)(=O)Cc2ccc(Cl)cc2Cl)cc(OC)c1OC` [Example 105], the melting point fell in the range of 147 to 152 °C. The IC50 in data set [1] is 10 to 25 µM. The compound further gave a half-maximal inhibitory concentration (IC50) in the data set with DU145 (prostate cancer) of 25 to 50 µM.
For `N#C/C(=C\c1ccc(Cl)cc1Cl)S(=O)(=O)Cc1ccc(Cl)cc1` [Example 51] the same measures were 121 to 126 °C, 25 to 50 µM and 25 to 50 µM.
For `COc1ccccc1/C=C(\C#N)S(=O)(=O)Cc1ccccc1` [Example 126] the same measures were 169 to 172 °C, more than 100 µM and more than 100 µM.
For `CCOc1ccc(/C=C(\C#N)S(=O)(=O)Nc2ccc(OC)cc2)cc1OC` [Example 287] the same measures were 111 to 113 °C, more than 100 µM and more than 100 µM.
The compound `Cc1cc(C)cc(/C=C(\C#N)S(=O)(=O)Cc2ccc(Br)cc2)c1` [Example 101] yielded a melting point of 169 to 172 °C. The same compound displayed an IC50 in data set [1] of 50 to 100 µM. The IC50 in the data set on DU145 (prostate cancer) is more than 100 µM.
Consider `Cc1ccc(NS(=O)(=O)/C(C#N)=C/c2ccc(C)s2)c(C)c1` [Example 265], for which the melting point fell in the range of 158 to 160 °C. The IC50 in data set [1] lay within 25 to 50 µM. Also, in the data set on DU145 (prostate cancer), the half-inhibitory concentration (IC50) lay in the range of 50 to 100 µM.
For `N#C/C(=C\c1ccccc1Cl)S(=O)(=O)Cc1ccccc1` [Example 130] the same measures were 155 to 160 °C, more than 100 µM and more than 100 µM.
`N#C/C(=C\c1ccccc1)S(=O)(=O)Cc1ccc(Cl)cc1Cl` [Example 112] returned a melting point of 219 to 223 °C. Moreover, the IC50 in data set [1] was 50 to 100 µM. The compound further displayed an IC50 with DU145 (prostate cancer) of 50 to 100 µM.
For the compound `COc1ccc(/C=C(\C#N)S(=O)(=O)Cc2ccc(Cl)cc2Cl)c(OC)c1OC` [Example 93], the melting point lay within 150 to 165 °C. Further, the IC50 in data set [1] is 25 to 50 µM. The IC50 in the data set on DU145 (prostate cancer) was 25 to 50 µM.
The compound `N#C/C(=C\c1ccc(Br)cc1)S(=O)(=O)Cc1ccc(Cl)cc1` [Example 45] gave a melting point of 168 to 180 °C. Further, the IC50 in data set [1] lay within 50 to 100 µM. In the data set on DU145 (prostate cancer), the IC50 lay within 50 to 100 µM.
`N#C/C(=C\c1ccc(Br)cc1)S(=O)(=O)Nc1ccccc1Oc1ccccc1` [Example 196] yielded a melting point of 129 to 134 °C. For the same compound, the IC50 in data set [1] lay within 50 to 100 µM. In the data set with DU145 (prostate cancer), this compound had an IC50 of 50 to 100 µM.
Turning to `CC(=O)Oc1ccc(/C=C(\C#N)S(=O)(=O)Cc2ccc(F)cc2)cc1` [Example 84], the melting point fell in the range of 116 to 125 °C. In data set [1], this compound gave a 50% inhibitory concentration (IC50) of 1 to 10 µM. The compound further returned an IC50 with DU145 (prostate cancer) of 1 to 10 µM.
As to `CCOc1ccc(/C=C(\C#N)S(=O)(=O)Nc2ccccc2Oc2ccccc2)cc1OC` [Example 211], the melting point is 142 to 144 °C. This compound also gave an IC50 in data set [1] of 1 to 10 µM. In addition, in the data set with DU145 (prostate cancer), the IC50 lay within 1 to 10 µM.
`CCOc1cc(/C=C(\C#N)S(=O)(=O)Cc2ccc(Cl)cc2)ccc1O` [Example 54] yielded a melting point of 155 to 169 °C. In data set [1], this compound returned an IC50 of 50 to 100 µM. In the data set with DU145 (prostate cancer), this compound registered an IC50 of more than 100 µM.
For `COc1cc(OC)c(OC)cc1/C=C(\C#N)S(=O)(=O)Cc1ccc(Cl)cc1Cl` [Example 107] the same measures were 164 to 170 °C, more than 100 µM and 50 to 100 µM.
The like results for `COc1ccc(CS(=O)(=O)/C(C#N)=C/c2cc(OC)cc(OC)c2)cc1` [Example 149] were, in that order, 135 to 140 °C, 50 to 100 µM and more than 100 µM.
The like results for `COc1ccc(/C=C(\C#N)S(=O)(=O)Cc2ccc(Cl)cc2Cl)c(O)c1` [Example 113] were, in that order, 242 to 247 °C, more than 100 µM and more than 100 µM.
`N#C/C(=C\c1ccc(F)cc1)S(=O)(=O)Cc1ccc(Cl)cc1` [Example 47] came in with a melting point of 145 to 150 °C. Moreover, in data set [1], the IC50 was in the range of 50 to 100 µM. This compound also returned a 50% inhibitory concentration (IC50) in the data set with DU145 (prostate cancer) of 50 to 100 µM.
Regarding `Cc1ccc(NS(=O)(=O)/C(C#N)=C/c2ccc(Cl)cc2)c(C)c1` [Example 267], the melting point lay within 158 to 161 °C. Further, in data set [1], the half-inhibitory concentration (IC50) was 50 to 100 µM. Also, in the data set on DU145 (prostate cancer), the IC50 is 50 to 100 µM.
